{
  "source": "patent US7195783B2",
  "about": "“Hypericin and hypericum extract: specific T-type calcium channel blocker, and their use as T-type calcium channel targeted therapeutics” (FX Life Sciences International GmbH, priority 1999, dated 2007)",
  "key": {"L-type calcium channels": {"tested_on": "L-type calcium channels", "experiment": "Whole-cell patch-clamp, L-type calcium current in cultured N1E-115 neuroblastoma cells", "type": "cell-based, Mouse", "conditions": "cultured N1E-115 cells; hypericin 0.1, 1 and 10 uM (FIG. 1)", "method": "(§1) Mouse neuroblastoma cells (N1E115) were cultured in Dulbecco's modified Eagle's medium (GIBCO) containing 10% fetal bovine serum at 37° C. in a humidified atmosphere of 5% CO2 in air. The medium was changed every 3–4 days. After mechanical agitation, 3×10^4 cells were replanted in 35 mm tissue culture dishes containing 4 ml of bath solution. After cell attachment, the dish was mounted on the stage of an inverted phase-contrast microscope (Nikon) for Ca^2+ channel current recording. These cells expressed predominately T channel currents. In experiments where L channels were specifically sought, the cells were grown and maintained at confluence for 3–4 weeks under the same culture conditions with the addition of 2% (vol/vol) dimethyl sulfoxide. Three to five days before use, the cells were replanted with the same medium. These cells expressed predominately L channel currents. A small number of these cells also expressed T channel currents.\nThe whole-cell version of the patch-clamp technique was used. […] Since the peak currents measured with 20 mM Ba^2+ as the charge carrier were usually small (about 200 pA), the series resistance compensation was not usually employed. […] For every single-cell recording, stable readings were first obtained for 5 min; the drug was then added to the bath solution. […]"}, "T-type calcium channel": {"tested_on": "T-type calcium channel", "experiment": "Whole-cell patch-clamp, T-type calcium current in N1E-115 cells", "type": "cell-based, Mouse", "conditions": "for effect on T-type calcium current: hypericin 0.1 to 10 uM (FIG. 3)", "method": "as §1\nThe whole-cell version of the patch-clamp technique was used. The pipettes had resistance of 2–15 M. Membrane current recordings were made with an Axopatch-1C (Axon Instruments) patch-clamp amplifier. All signals were filtered at 1 kHz and stored in the computer. Since the peak currents measured with 20 mM Ba^2+ as the charge carrier were usually small (about 200 pA), the series resistance compensation was not usually employed. If the capacitive transient overlapped with the onset of the inward current, or if the spatial voltage control was inadequate (i.e., NIE-115 cells with long neural outgrowths), the experimental data were rejected. Unless otherwise specified the current-voltage plots were constructed by using the peak values (corrected for leakage) from the original records for both T and L channel currents. The holding membrane potential was fixed at −80 mV when the T channels were under investigation or at […] when the L channels were studied. […] For every single-cell recording, stable readings were first obtained for 5 min; the drug was then added to the bath solution. […]"}, "L-type calcium current [1]": {"tested_on": "L-type calcium current", "experiment": "L-type calcium current in vascular smooth muscle cells (VSMC)", "type": "cell-based", "conditions": "vascular smooth muscle cells (FIG. 6)"}, "L-type calcium current [2]": {"tested_on": "L-type calcium current", "experiment": "L-type calcium current in ventricular cells from baby rats", "type": "cell-based", "conditions": "ventricular cells from baby rats (FIG. 7)"}},
  "note": "“Also recorded” adds a separate entry of the source.",
  "data": [
    {"substance": "hypericin", "values": [
      {"measurement": "effect on L-type calcium current activity", "setting": "L-type calcium channels", "result": "slight but not significant increase; also recorded: does not significantly affect"},
      {"measurement": "inhibition on T-type calcium current", "setting": "T-type calcium channel; 0.15 ug/ml of pure hypericin (FIG. 3)", "result": "less than 10%"},
      {"measurement": "effect on T-type calcium current", "setting": "T-type calcium channel", "result": "inhibited T-type calcium currents in a dose-dependent manner"},
      {"measurement": "effect on T-type calcium current", "setting": "T-type calcium channel; listed as Hypericin", "result": "dose-dependent inhibitory effect"},
      {"measurement": "effect on L-type calcium current", "setting": "L-type calcium current [1]", "result": "did not affect"},
      {"measurement": "effect on L-type calcium current", "setting": "L-type calcium current [2]", "result": "did not affect"}
    ]}
  ]
}
